Experimental data taken from patent publication US9980943B2, “Methods of treating muscular dystrophy” (BOARD OF REGENTS OF THE NEVADA SYSTEM OF HIGHER EDUCATION, …, priority 2013, dated 2018).

Experiments:
Assay type in all cases: cell-based, mouse
[1] = tested on: α7 integrin (LacZ reporter in α7βgal+/− myoblasts); assay: Myoblast α7+/LacZ integrin FDG assay (Burkin assay in myoblasts, 96-well); settings: 96-well; for Burkin Assay in Myoblasts, signal relative to DMSO: α7+/LacZ myoblasts; for Burkin Assay in Myoblasts, value relative to DMSO: SU9516 analogs, N=3-6
[2] = tested on: α7 integrin (LacZ reporter in α7+/LacZ myotubes); assay: Myotube α7 integrin FDG assay (Burkin assay in myotubes, 96-well); settings: for Burkin Assay in Myotubes, value relative to DMSO: SU9516 analogs, 96-well, N=3-6
[3] = tested on: β-galactosidase in CMV-LacZ C2C12 myotubes; assay: CMV-LacZ secondary screen in C2C12 myotubes (β-Gal stabilizing assay); settings: for CMV-LACZ in Myotubes, signal relative to DMSO: C2C12 CMV-LacZ myotubes, fold relative to DMSO; for CMV-LACZ in Myotubes, value relative to DMSO: SU9516 analogs, C2C12 CMV-LacZ, N=2
Summary of the method: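 CMV-LacZ C2C12 line (clonal, FDG-screened); myoblasts/myotubes dosed 0.5–40 μM (0.5, 1, 5, 10, 20, 40 μM); n=2 per point; β-gal stabilization read-out.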

[4] = tested on: β-galactosidase in CMV-LacZ C2C12 myoblasts; assay: CMV-LacZ secondary screen in C2C12 myoblasts (β-Gal stabilizing assay); settings: for CMV-LACZ in Myoblasts (β-galactosidase activity relative to DMSO): CMV-LacZ C2C12 myoblasts; for CMV-LACZ in Myoblasts, value relative to DMSO: SU9516 analogs, C2C12 CMV-LacZ, N=2
Summary of the method: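 First, C2C12 myoblasts were transfected with a linearized CMV-LACZ vector and clonal lines selected by FDG β-gal assay. Then cells were exposed to compounds at 0.5, 1, 5, 10, 20 and 40 μM in 96-well format, two replicates each, and β-gal measured.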

**Q.** Which results are given for `O=C(Nc1cc(-c2nc3ccccc3s2)ccc1Cl)c1ccc2c(c1)OCO2` [MLS000560266-01]?
**A.** Burkin Assay in Myoblasts, signal relative to DMSO ([1]; 0.5 uM): 0.953; Burkin Assay in Myoblasts, signal relative to DMSO ([1]; 1 uM): 0.8556; Burkin Assay in Myoblasts, signal relative to DMSO ([1]; 5 uM): 1.026; Burkin Assay in Myoblasts, signal relative to DMSO ([1]; 10 uM): 1.13; Burkin Assay in Myoblasts, signal relative to DMSO ([1]; 20 uM): 0.8321; Burkin Assay in Myoblasts, signal relative to DMSO ([1]; 40 uM): 0.5589; Burkin Assay in Myotubes, α7 integrin LacZ reporter signal relative to DMSO ([2]; 0.5 uM): 0.9891; Burkin Assay in Myotubes, α7 integrin LacZ reporter signal relative to DMSO ([2]; 1 uM): 0.8824; Burkin Assay in Myotubes, α7 integrin LacZ reporter signal relative to DMSO ([2]; 5 uM): 1.037; Burkin Assay in Myotubes, α7 integrin LacZ reporter signal relative to DMSO ([2]; 10 uM): 1.185; Burkin Assay in Myotubes, α7 integrin LacZ reporter signal relative to DMSO ([2]; 20 uM): 0.6706; Burkin Assay in Myotubes, α7 integrin LacZ reporter signal relative to DMSO ([2]; 40 uM): 0.6059; CMV-LACZ in Myotubes, signal relative to DMSO ([3]; 0.5 uM): 0.9724; CMV-LACZ in Myotubes, signal relative to DMSO ([3]; 1 uM): 1.0000; CMV-LACZ in Myotubes, signal relative to DMSO ([3]; 5 uM): 1.0253; CMV-LACZ in Myotubes, signal relative to DMSO ([3]; 10 uM): 1.0224; CMV-LACZ in Myotubes, signal relative to DMSO ([3]; 20 uM): 1.0520; CMV-LACZ in Myotubes, signal relative to DMSO ([3]; 40 uM): 0.9470; CMV-LACZ in Myoblasts (β-galactosidase activity relative to DMSO) ([4]; 0.5 uM): 0.9030; CMV-LACZ in Myoblasts (β-galactosidase activity relative to DMSO) ([4]; 1 uM): 0.8123; CMV-LACZ in Myoblasts (β-galactosidase activity relative to DMSO) ([4]; 5 uM): 0.9405; CMV-LACZ in Myoblasts (β-galactosidase activity relative to DMSO) ([4]; 10 uM): 0.9991; CMV-LACZ in Myoblasts (β-galactosidase activity relative to DMSO) ([4]; 20 uM): 1.1095; CMV-LACZ in Myoblasts (β-galactosidase activity relative to DMSO) ([4]; 40 uM): 1.0484

**Q.** Which “Burkin Assay in Myoblasts, signal relative to DMSO” value ([1]; 0.5 uM) does the source give for `COc1cc(/C=C/CN2CCN(Cc3ccc(C)o3)C(CCO)C2)ccc1O` (stereo not drawn) [MLS000693704-01] here?
**A.** The value was 1.428.

**Q.** What about the “Burkin Assay in Myoblasts, signal relative to DMSO” value ([1]; 1 uM) of the same compound?
**A.** The value was 1.153.

**Q.** What about the “Burkin Assay in Myoblasts, signal relative to DMSO” value ([1]; 5 uM) of the same compound?
**A.** Its value is 1.1427.

**Q.** What about the “Burkin Assay in Myoblasts, signal relative to DMSO” value ([1]; 10 uM) of the same compound?
**A.** The value was 0.9418.

**Q.** What about the “Burkin Assay in Myoblasts, signal relative to DMSO” value ([1]; 20 uM) of the same compound?
**A.** Its value is 0.8473.

**Q.** What about the “Burkin Assay in Myoblasts, signal relative to DMSO” value ([1]; 40 uM) of the same compound?
**A.** Its value is 0.8019.

**Q.** And the “Burkin Assay in Myotubes, α7 integrin LacZ reporter signal relative to DMSO” value ([2]; 0.5 uM)?
**A.** Its value is 0.9315.

**Q.** And the “Burkin Assay in Myotubes, α7 integrin LacZ reporter signal relative to DMSO” value ([2]; 1 uM)?
**A.** The value was 1.0787.

**Q.** What about the “Burkin Assay in Myotubes, α7 integrin LacZ reporter signal relative to DMSO” value ([2]; 5 uM) of the same compound?
**A.** The value was 1.003.

**Q.** And the “Burkin Assay in Myotubes, α7 integrin LacZ reporter signal relative to DMSO” value ([2]; 10 uM)?
**A.** The value was 0.923.

**Q.** What about the “Burkin Assay in Myotubes, α7 integrin LacZ reporter signal relative to DMSO” value ([2]; 20 uM) of the same compound?
**A.** The value was 0.9587.

**Q.** What about the “Burkin Assay in Myotubes, α7 integrin LacZ reporter signal relative to DMSO” value ([2]; 40 uM) of the same compound?
**A.** Its value is 0.8263.

**Q.** And the “CMV-LACZ in Myotubes, signal relative to DMSO” value ([3]; 0.5 uM)?
**A.** The value was 0.8571.

**Q.** What about the “CMV-LACZ in Myotubes, signal relative to DMSO” value ([3]; 1 uM) of the same compound?
**A.** The value was 0.8695.

**Q.** What about the “CMV-LACZ in Myotubes, signal relative to DMSO” value ([3]; 5 uM) of the same compound?
**A.** The value was 1.1170.

**Q.** What about the “CMV-LACZ in Myotubes, signal relative to DMSO” value ([3]; 10 uM) of the same compound?
**A.** The value was 1.0812.

**Q.** And the “CMV-LACZ in Myotubes, signal relative to DMSO” value ([3]; 20 uM)?
**A.** Its value is 1.1647.

**Q.** What about the “CMV-LACZ in Myotubes, signal relative to DMSO” value ([3]; 40 uM) of the same compound?
**A.** Its value is 1.0600.

**Q.** What about the “CMV-LACZ in Myoblasts (β-galactosidase activity relative to DMSO)” value ([4]; 0.5 uM) of the same compound?
**A.** Its value is 0.8989.

**Q.** And the “CMV-LACZ in Myoblasts (β-galactosidase activity relative to DMSO)” value ([4]; 1 uM)?
**A.** The value was 1.1157.

**Q.** And the “CMV-LACZ in Myoblasts (β-galactosidase activity relative to DMSO)” value ([4]; 5 uM)?
**A.** Its value is 0.9522.

**Q.** What about the “CMV-LACZ in Myoblasts (β-galactosidase activity relative to DMSO)” value ([4]; 10 uM) of the same compound?
**A.** The value was 0.9977.

**Q.** And the “CMV-LACZ in Myoblasts (β-galactosidase activity relative to DMSO)” value ([4]; 20 uM)?
**A.** Its value is 0.7996.

**Q.** What about the “CMV-LACZ in Myoblasts (β-galactosidase activity relative to DMSO)” value ([4]; 40 uM) of the same compound?
**A.** The value was 1.0567.

**Q.** For `O=C1Nc2ccccc2/C1=C/c1cccnc1` [MLS000682748-01], which “Burkin Assay in Myoblasts, value relative to DMSO” value ([1]; 0.5 uM) is on record?
**A.** Its value is 1.259.

**Q.** And the “Burkin Assay in Myoblasts, value relative to DMSO” value ([1]; 1 uM)?
**A.** The value was 1.162.

**Q.** What about the “Burkin Assay in Myoblasts, value relative to DMSO” value ([1]; 5 uM) of the same compound?
**A.** The value was 0.8923.

**Q.** What about the “Burkin Assay in Myoblasts, value relative to DMSO” value ([1]; 10 uM) of the same compound?
**A.** The value was 0.765.

**Q.** And the “Burkin Assay in Myoblasts, value relative to DMSO” value ([1]; 20 uM)?
**A.** The value was 0.4669.

**Q.** And the “Burkin Assay in Myoblasts, value relative to DMSO” value ([1]; 40 uM)?
**A.** Its value is 0.2472.

**Q.** And the “Burkin Assay in Myotubes, value relative to DMSO” value ([2]; 0.5 uM)?
**A.** The value was 0.9801.

**Q.** And the “Burkin Assay in Myotubes, value relative to DMSO” value ([2]; 1 uM)?
**A.** Its value is 1.211.

**Q.** What about the “Burkin Assay in Myotubes, value relative to DMSO” value ([2]; 5 uM) of the same compound?
**A.** The value was 1.147.

**Q.** What about the “Burkin Assay in Myotubes, value relative to DMSO” value ([2]; 10 uM) of the same compound?
**A.** The value was 1.085.

**Q.** And the “Burkin Assay in Myotubes, value relative to DMSO” value ([2]; 20 uM)?
**A.** The value was 0.743.

**Q.** And the “Burkin Assay in Myotubes, value relative to DMSO” value ([2]; 40 uM)?
**A.** Its value is 0.6206.

**Q.** And the “CMV-LACZ in Myotubes, value relative to DMSO” value ([3]; 0.5 uM)?
**A.** Its value is 0.9356.

**Q.** What about the “CMV-LACZ in Myotubes, value relative to DMSO” value ([3]; 1 uM) of the same compound?
**A.** The value was 0.8459.

**Q.** What about the “CMV-LACZ in Myotubes, value relative to DMSO” value ([3]; 5 uM) of the same compound?
**A.** Its value is 0.8790.

**Q.** And the “CMV-LACZ in Myotubes, value relative to DMSO” value ([3]; 10 uM)?
**A.** Its value is 0.9205.

**Q.** And the “CMV-LACZ in Myotubes, value relative to DMSO” value ([3]; 20 uM)?
**A.** The value was 1.1753.

**Q.** And the “CMV-LACZ in Myotubes, value relative to DMSO” value ([3]; 40 uM)?
**A.** The value was 1.1071.

**Q.** What about the “CMV-LACZ in Myoblasts, value relative to DMSO” value ([4]; 0.5 uM) of the same compound?
**A.** Its value is 0.9075.

**Q.** What about the “CMV-LACZ in Myoblasts, value relative to DMSO” value ([4]; 1 uM) of the same compound?
**A.** The value was 0.9666.

**Q.** And the “CMV-LACZ in Myoblasts, value relative to DMSO” value ([4]; 5 uM)?
**A.** The value was 1.0215.

**Q.** What about the “CMV-LACZ in Myoblasts, value relative to DMSO” value ([4]; 10 uM) of the same compound?
**A.** The value was 0.9959.

**Q.** What about the “CMV-LACZ in Myoblasts, value relative to DMSO” value ([4]; 20 uM) of the same compound?
**A.** Its value is 0.3893.

**Q.** What about the “CMV-LACZ in Myoblasts, value relative to DMSO” value ([4]; 40 uM) of the same compound?
**A.** The value was 0.2419.
